SMILES strings stand for the structures.

The values that follow come from publication PMC10869683, “Structure of recombinant formate dehydrogenase from Methylobacterium extorquens (MeFDH1)” (Scientific Reports, 2024).

Experiment [1] deals with T1, recombinant MeFDH1 (alpha/beta heterodimer), MeFDH1-β FMN / diaphorase site (Methylorubrum extorquens, UniProt C5ATT6).
T1 construct: gene fdh1B; same complex as P1, site in beta subunit; C-terminal His6 on alpha; expressed in M. extorquens AM1 fdh1 knockout; heterodimer ~169 kDa; with Formate dehydrogenase subunit alpha (tungsten-containing formate dehydrogenase alpha subunit)
Description: cryo-EM structure, […] Å. It is filed as binding. As to conditions: FMN site at the center of the beta subunit.

Experiment [2] addresses T1, recombinant MeFDH1 (alpha/beta heterodimer), MeFDH1-β FMN / diaphorase site. Description: formate oxidation coupled to NAD+ reduction, A340. In kind it is biochemical. Conditions: 30 mM potassium formate, 0.5 mM NAD+, 50 mM MOPS, 30 °C; pH not given; site in beta inferred by homology.
Experiment [3] addresses T2, recombinant MeFDH1 (alpha/beta heterodimer), MeFDH1-α active site (Methylorubrum extorquens, UniProt C5ATT7).
T2 construct: gene fdh1A
T2 sequence (C5ATT7 1-989): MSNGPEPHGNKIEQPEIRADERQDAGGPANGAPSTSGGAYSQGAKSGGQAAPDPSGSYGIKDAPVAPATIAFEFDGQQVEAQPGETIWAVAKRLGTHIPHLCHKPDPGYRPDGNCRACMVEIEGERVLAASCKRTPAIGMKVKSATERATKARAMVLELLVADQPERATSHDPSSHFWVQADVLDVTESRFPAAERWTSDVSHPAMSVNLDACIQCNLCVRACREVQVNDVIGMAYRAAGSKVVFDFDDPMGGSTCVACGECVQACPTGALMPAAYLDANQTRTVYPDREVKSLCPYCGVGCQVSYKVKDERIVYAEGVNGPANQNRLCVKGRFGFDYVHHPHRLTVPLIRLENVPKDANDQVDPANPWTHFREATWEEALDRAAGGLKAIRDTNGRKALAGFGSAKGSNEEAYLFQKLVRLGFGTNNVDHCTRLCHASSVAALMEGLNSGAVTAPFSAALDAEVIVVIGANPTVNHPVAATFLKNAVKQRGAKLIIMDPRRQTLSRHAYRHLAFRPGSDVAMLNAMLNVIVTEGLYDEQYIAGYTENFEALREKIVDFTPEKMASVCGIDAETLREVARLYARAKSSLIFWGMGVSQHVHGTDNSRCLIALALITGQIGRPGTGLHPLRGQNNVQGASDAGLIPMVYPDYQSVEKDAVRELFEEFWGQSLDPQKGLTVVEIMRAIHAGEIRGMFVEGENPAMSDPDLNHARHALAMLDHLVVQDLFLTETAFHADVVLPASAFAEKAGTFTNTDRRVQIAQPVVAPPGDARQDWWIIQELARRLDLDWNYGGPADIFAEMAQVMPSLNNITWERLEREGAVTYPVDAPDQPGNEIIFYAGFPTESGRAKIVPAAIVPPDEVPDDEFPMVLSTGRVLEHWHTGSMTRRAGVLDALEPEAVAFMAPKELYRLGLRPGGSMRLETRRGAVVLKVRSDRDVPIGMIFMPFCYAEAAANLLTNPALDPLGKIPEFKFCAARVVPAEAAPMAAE
T2 sequence (C5ATT6 1-572 partner): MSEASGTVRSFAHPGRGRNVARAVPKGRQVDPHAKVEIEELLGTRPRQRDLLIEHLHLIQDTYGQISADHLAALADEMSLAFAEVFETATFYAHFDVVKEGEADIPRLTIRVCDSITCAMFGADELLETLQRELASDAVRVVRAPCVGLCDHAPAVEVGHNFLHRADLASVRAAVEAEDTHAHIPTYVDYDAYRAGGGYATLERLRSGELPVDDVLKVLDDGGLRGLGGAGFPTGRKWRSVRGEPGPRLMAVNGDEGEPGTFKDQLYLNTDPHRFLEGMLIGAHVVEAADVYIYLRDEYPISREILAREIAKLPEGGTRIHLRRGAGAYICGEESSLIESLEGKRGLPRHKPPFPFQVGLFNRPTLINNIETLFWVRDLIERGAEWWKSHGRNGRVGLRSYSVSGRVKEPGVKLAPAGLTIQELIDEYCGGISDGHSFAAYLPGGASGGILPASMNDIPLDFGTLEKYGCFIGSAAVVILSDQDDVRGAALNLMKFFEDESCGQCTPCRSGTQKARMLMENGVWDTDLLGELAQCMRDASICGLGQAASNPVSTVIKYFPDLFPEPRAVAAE
As to conditions: 30 mM potassium formate, 0.5 mM NAD+, 50 mM MOPS, 30 °C; pH not given.

`Cc1cc2nc3c(=O)[nH]c(=O)nc-3n(C[C@H](O)[C@H](O)[C@H](O)COP(=O)(O)O)c2cc1C` [FMN]: in experiment [1], the “cryo-EM structure, 2.8 Å” value was “FMN is coordinated at the center of the MeFDH1-β subunit”.

In the case of `NC(=O)c1ccc[n+]([C@@H]2O[C@H](COP(=O)(O)OP(=O)(O)OC[C@H]3O[C@@H](n4cnc5c(N)ncnc54)[C@H](O)[C@@H]3O)[C@@H](O)[C@H]2O)c1` [NAD^+], the “formate oxidation coupled to NAD+ reduction, A340” value in experiment [2] is given as “measuring its formate oxidation reaction coupled with NAD^+ reduction”.

As for `O=CO` [formate], the “formate oxidation coupled to NAD+ reduction, A340” value in experiment [3] is reported as “measuring its formate oxidation reaction coupled with NAD^+ reduction”.
